From patent US20100173777A1, “Piperazine Compounds Having Herbicidal Action” (BASF SE, priority 2007, published 2010)

Experiments:
Assay type in all cases: in vivo
[1] = tested on: ALOMY (Alopecurus myosuroides); test: greenhouse pre-emergence herbicidal test, ALOMY; conditions: scale from 0 to 100
From the text: (§1) The culture containers used were plastic flowerpots containing loamy sand with approximately 3.0% of humus as the substrate. The seeds of the test plants were sown separately for each species.
(§2) For the pre-emergence treatment, the active ingredients, which had been suspended or emulsified in water, were applied directly after sowing by means of finely distributing nozzles. The containers were irrigated gently to promote germination and growth and subsequently covered with transparent plastic hoods until the plants had rooted. This cover caused uniform germination of the test plants, unless this has been impaired by the active ingredients.
(§3) Depending on the species, the plants were kept at 10-25° C. or 20-35° C. The test period extended over 2 to 4 weeks. During this time, the plants were tended, and their response to the individual treatments was evaluated.
(§4) Evaluation was carried out using a scale from 0 to 100. 100 means no emergence of the plants, or complete destruction of at least the aerial moieties, and 0 means no damage, or normal course of growth. A good herbicidal activity is given at values of at least 70 and a very good herbicidal activity is given at values of at least 85.

[2] = tested on: AMARE (Amaranthus retoflexus); test: greenhouse post-emergence herbicidal test, AMARE; conditions: 1.0 kg/ha, scale from 0 to 100
From the text: as §1
(§5) For the post-emergence treatment, the test plants were first grown to a height of 3 to 15 cm, depending on the plant habit, and only then treated with the active ingredients which had been suspended or emulsified in water. For this purpose, the test plants were either sown directly and grown in the same containers, or they were first grown separately as seedlings and transplanted into the test containers a few days prior to treatment.
as §3, §4

[3] = tested on: ECHCG (Echinochloa crus-galli); test: greenhouse pre-emergence herbicidal test, ECHCG; conditions: scale from 0 to 100
From the text: as §1, §2, §3, §4

[4] = tested on: ECHCG (Echinochloa crus-galli); test: greenhouse post-emergence herbicidal test, ECHCG; conditions: scale from 0 to 100
From the text: as §1, §5, §3, §4

SETFA (Setaria faberi) = test: greenhouse pre-emergence herbicidal test, SETFA; conditions: 1.0 kg/ha, scale from 0 to 100
From the text: as §1, §2, §3, §4

[5] = tested on: CHEAL (Chenopodium album); test: greenhouse post-emergence herbicidal test, CHEAL; conditions: 1.0 kg/ha, scale from 0 to 100
From the text: as §1, §5, §3, §4

[6] = tested on: AMARE (Amaranthus retoflexus); test: greenhouse pre-emergence herbicidal test, AMARE; conditions: 1.0 kg/ha, scale from 0 to 100
From the text: as §1, §2, §3, §4

SETVI (Setaria viridis) = test: greenhouse post-emergence herbicidal test, SETVI; conditions: 1.0 kg/ha, scale from 0 to 100
From the text: as §1, §5, §3, §4

[7] = tested on: APESV (Apera spica-venti); test: greenhouse pre-emergence herbicidal test, APESV; conditions: scale from 0 to 100
From the text: as §1, §2, §3, §4

[8] = tested on: APESV (Apera spica-venti); test: greenhouse post-emergence herbicidal test, APESV; conditions: 0.5 kg/ha, scale from 0 to 100
From the text: as §1, §5, §3, §4

[9] = tested on: ALOMY (Alopecurus myosuroides); test: greenhouse post-emergence herbicidal test, ALOMY; conditions: 0.5 kg/ha, scale from 0 to 100
From the text: as §1, §5, §3, §4

CN1C(=O)C(C)(Cc2ccccc2)N(C)C(=O)C1Cc1ccccc1C#N (single isomer, unassigned) [Example 1 (main isomer 1), 2-[5-Benzyl-1,4,5-trimethyl-3,6-dioxopiperazine-2-ylmethyl]benzonitrile]
herbicidal activity against ALOMY ([1]; 1.0 kg/ha): very good herbicidal activity (a very good herbicidal activity is given at values of at least 85) | herbicidal activity against AMARE [2]: very good herbicidal activity (a very good herbicidal activity is given at values of at least 85) | herbicidal activity against ECHCG ([3]; 1.0 kg/ha): very good herbicidal activity (a very good herbicidal activity is given at values of at least 85) | herbicidal activity against ECHCG ([4]; 1.0 kg/ha): very good herbicidal activity (a very good herbicidal activity is given at values of at least 85) | herbicidal activity against SETFA (SETFA (Setaria faberi)): very good herbicidal activity (a very good herbicidal activity is given at values of at least 85) | herbicidal activity against CHEAL [5]: very good herbicidal activity (a very good herbicidal activity is given at values of at least 85) | herbicidal activity against AMARE [6]: very good herbicidal activity (a very good herbicidal activity is given at values of at least 85) | herbicidal activity against SETVI (SETVI (Setaria viridis)): very good herbicidal activity (a very good herbicidal activity is given at values of at least 85) | herbicidal activity against APESV ([7]; 1.0 kg/ha): very good herbicidal activity (a very good herbicidal activity is given at values of at least 85)

CN1C(=O)C(C)(Cc2ccccc2)N(C)C(=O)C1Cc1ccccc1C#N (single isomer, unassigned) [Example 1 (minor isomer 2), 2-[5-Benzyl-1,4,5-trimethyl-3,6-dioxopiperazine-2-ylmethyl]benzonitrile]
herbicidal activity against ALOMY ([1]; 0.5 kg/ha): very good herbicidal activity (a very good herbicidal activity is given at values of at least 85) | herbicidal activity against ECHCG ([3]; 0.5 kg/ha): very good herbicidal activity (a very good herbicidal activity is given at values of at least 85) | herbicidal activity against ECHCG ([4]; 0.5 kg/ha): very good herbicidal activity (a very good herbicidal activity is given at values of at least 85) | herbicidal activity against APESV [8]: very good herbicidal activity (a very good herbicidal activity is given at values of at least 85) | herbicidal activity against APESV ([7]; 0.5 kg/ha): very good herbicidal activity (a very good herbicidal activity is given at values of at least 85) | herbicidal activity against ALOMY [9]: very good herbicidal activity (a very good herbicidal activity is given at values of at least 85)
